Measurements: patent US12319679B2, “Morpholinyl, piperazinyl, oxazepanyl and diazepanyl O-glycoprotein-2-acetamido-2-deoxy-3-d-glucopyranosidase inhibitors” (BIOGEN MA INC., priority 2018, dated 2025)
pIC50: −log10 of the molar value.

Target: T1, Recombinant full length human OGA enzyme (Homo sapiens, UniProt O60502)
T1 construct: Recombinant full length human OGA enzyme was purchased from Origene; purchased Origene
T1 sequence (O60502 1-916): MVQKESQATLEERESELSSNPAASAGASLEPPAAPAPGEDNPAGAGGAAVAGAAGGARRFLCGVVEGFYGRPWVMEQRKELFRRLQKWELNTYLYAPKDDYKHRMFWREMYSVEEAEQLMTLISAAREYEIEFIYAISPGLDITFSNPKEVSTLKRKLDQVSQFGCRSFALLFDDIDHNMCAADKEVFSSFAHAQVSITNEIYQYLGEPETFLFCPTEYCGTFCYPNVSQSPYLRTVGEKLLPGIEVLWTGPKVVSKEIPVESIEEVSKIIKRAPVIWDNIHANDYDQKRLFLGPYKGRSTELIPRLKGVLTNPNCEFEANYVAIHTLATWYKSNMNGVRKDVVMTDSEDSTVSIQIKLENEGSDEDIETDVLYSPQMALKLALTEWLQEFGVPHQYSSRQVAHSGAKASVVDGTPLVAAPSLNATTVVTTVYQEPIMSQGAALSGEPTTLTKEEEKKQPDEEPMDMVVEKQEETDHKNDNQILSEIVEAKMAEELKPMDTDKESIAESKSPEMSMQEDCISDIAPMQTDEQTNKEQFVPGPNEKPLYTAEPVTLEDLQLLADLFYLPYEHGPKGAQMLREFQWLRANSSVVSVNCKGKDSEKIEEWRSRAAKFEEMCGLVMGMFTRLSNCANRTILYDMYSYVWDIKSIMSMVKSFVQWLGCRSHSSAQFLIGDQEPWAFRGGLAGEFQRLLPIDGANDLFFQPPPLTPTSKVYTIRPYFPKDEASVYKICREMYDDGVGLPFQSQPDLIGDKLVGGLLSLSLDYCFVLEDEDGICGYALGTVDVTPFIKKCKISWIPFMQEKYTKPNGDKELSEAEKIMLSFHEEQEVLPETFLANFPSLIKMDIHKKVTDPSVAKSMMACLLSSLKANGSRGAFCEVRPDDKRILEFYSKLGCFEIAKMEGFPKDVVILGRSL
Assay: OGA Enzyme Inhibition Biochemical Assay
Conditions: 1 nM OGA, 100 μM 4-MUGlcNAc (Km), pH 6.4, 90 minutes at room temperature; 10-point dose-response starting from 20 μM
Protocol: OGA Enzyme Inhibition Biochemical Assay
Recombinant full length human OGA enzyme was purchased from Origene. 4-MUGlCNAc substrate was purchased from Sigma. All other reagents were purchased from Sigma or Fisher. Assay buffer consists of the McIlvaine buffer system, pH 6.4 (0.2M Na2HPO4 mixed with 0.1M citric acid) and 0.01% BSA. Reactions consist of 1 nM OGA, 100 μM 4-MUGlcNAc (Km), and compound in a final volume of 10 μl. Reactions were incubated for 90 minutes at room temperature and quenched with 40 μl of 3M glycine, pH 10 and read on a Perkin Elmer Envision plate reader (Ex: 355 nm/Em: 460 nm). Compounds were tested with a 10-point dose-response starting from 20 μM with a 4-fold dilution. Data was fit using GraphPad Prism using a 4-paramter fit with variable slope.

Row | pIC50 | Structure (SMILES)
1 | 5.17 | CC(=O)Nc1ncc(CN2CCNC(Cc3ccnc(C)c3)C2)s1 (single isomer, unassigned) [Example 4-8 Peak 1]
2 | < 4.70 | COc1cc(CC2CN(Cc3cnc(NC(C)=O)s3)CCN2C)ccn1 (single isomer, unassigned) [Example 4-12 Peak 2]
3 | 7.59 | CCN1C[C@H](C)N(Cc2cnc(NC(C)=O)s2)C[C@H]1Cc1ccnc(C)c1 [Example 2-3, N-(5-(((2S,5R)-4-ethyl-2-methyl-5-((2-methylpyridin-4-yl)methyl)piperazin-1-yl)methyl)thiazol-2-yl)acetamide]
4 | 7.42 | CC(=O)Nc1ncc(CN2CCOCC(Cc3cc(C)nc(C)c3)C2)s1 (single isomer, unassigned) [Example 1-43 Peak 2]
5 | 7.35 | CC(=O)Nc1ncc(CN2CCCOC(Cc3ncc(F)cn3)C2)s1 (racemic) [Example 1-38, N-(5-((2-((5-fluoropyrimidin-2-yl)methyl)-1,4-oxazepan-4-yl)methyl)thiazol-2-yl)acetamide]
6 | 7.77 | CC(=O)Nc1ncc(CN2C[C@@H](COc3cc(C)nc(C)c3)OC[C@@H]2C)s1 [Example 3-4, N-(5-(((2S,5S)-2-(((2,6-dimethylpyridin-4-yl)oxy)methyl)-5 methylmorpholino)methyl)thiazol-2-yl)acetamide]
7 | < 4.70 | COc1cc(CC2CN(Cc3cnc(NC(C)=O)s3)CCCN2C(C)=O)ccn1 (stereo not drawn) [Example 2-26, N-(5-((4-acetyl-3-((2-methoxypyridin-4-yl)methyl)-1,4-diazepan-1-yl)methyl)thiazol-2-yl)acetamide]
8 | 6.96 | CC(=O)Nc1ncc(CN2CCCOC(Cc3cc(C)nc(C)c3)C2)s1 (single isomer, unassigned) [Example 1-37 Peak 2]
9 | 7.85 | CC(=O)Nc1ncc(CN2CCOCC(Cc3ncc(F)cn3)C2)s1 (single isomer, unassigned) [Example 1-45 Peak 2]
10 | 7.38 | COc1cc(CC2COCCN(Cc3cnc(NC(C)=O)s3)C2)ccn1 (racemic) [Example 1-46, N-(5-((6-((2-methoxypyridin-4-yl)methyl)-1,4-oxazepan-4-yl)methyl)thiazol-2-yl)acetamide]
11 | 6.85 | CC(=O)Nc1nc(F)c(CN2CCO[C@H](Cc3ccc(C)nc3)C2)s1 [Example 1-48, (R)—N-(4-fluoro-5-((2-((6-methylpyridin-3-yl)methyl)morpholino)methyl)thiazol-2-yl)acetamide]
12 | 7.42 | CC(=O)Nc1ncc(CN2C[C@@H](COc3cc(C)nc(C)c3)N(C)C[C@@H]2C)s1 [Example 3-2, N-(5-(((2S,5S)-5-(((2,6-dimethylpyridin-4-yl)oxy)methyl)-2,4-dimethylpiperazin-1-yl)methyl)thiazol-2-yl)acetamide]
13 | 4.74 | COc1cc(CC2CN(Cc3cnc(NC(C)=O)s3)CCN2)ccn1 (single isomer, unassigned) [Example 2-22 Peak 1]
14 | 4.96 | COc1cc(CC2CN(Cc3cnc(NC(C)=O)s3)CCN2)ccc1F (single isomer, unassigned) [Example 4-6 Peak 1]
15 | 4.92 | CC(=O)Nc1ncc(CN2CCCN(C)C(Cc3ncc(F)cn3)C2)s1 (stereo not drawn) [Example 2-24, N-(5-((3-((5-fluoropyrimidin-2-yl)methyl)-4-methyl-1,4-diazepan-1-yl)methyl)thiazol-2-yl)acetamide]
16 | 6.82 | CC(=O)Nc1ncc(CN2C[C@H](Cc3ncc(F)cn3)OC[C@@H]2C)s1 [Example 1-28, N-(5-(((2S,5S)-2-((5-fluoropyrimidin-2-yl)methyl)-5-methylmorpholino)methyl)thiazol-2-yl)acetamide]
17 | 8.05 | CC(=O)Nc1ncc(CN2C[C@@H](Cc3cc(C)nc(C)c3)OC[C@@H]2C)s1 [Example 1-31]

Row | pIC50 | Structure (SMILES)
18 | 6.80 | CC(=O)Nc1ncc(CN2CCOC(C(C)c3ncc(F)cn3)C2)s1 (single isomer, unassigned) [Example 1-25 Peak 3]
19 | 7.72 | CC(=O)Nc1ncc(CN2CCOCC(Cc3cc(C)nc(C)c3)C2)s1 (racemic) [Example 1-42, N-(5-((6-((2,6-dimethylpyridin-4-yl)methyl)-1,4-oxazepan-4-yl)methyl)thiazol-2-yl)acetamide]
20 | 5.23 | CC(=O)Nc1ncc(CN2C[C@@H](Cc3cc(C)nc(C)c3)N(C(C)=O)C[C@@H]2C)s1 [Example 2-15, N-(5-(((2S,5R)-4-acetyl-5-((2,6-dimethylpyridin-4-yl)methyl)-2-methylpiperazin-1-yl)methyl)thiazol-2-yl)acetamide]
21 | 7.49 | CC(=O)Nc1ncc(CN2CCOCC(Cc3ncc(F)cn3)C2)s1 (racemic) [Example 1-44, N-(5-((6-((5-fluoropyrimidin-2-yl)methyl)-1,4-oxazepan-4-yl)methyl)thiazol-2-yl)acetamide]
22 | 6.77 | CC(=O)Nc1nc(F)c(CN2C[C@@H](Cc3ccc(C)nc3)OC[C@@H]2C)s1 [Example 1-49, N-(4-fluoro-5-(((2R,5S)-5-methyl-2-((6-methylpyridin-3 yl)methyl)morpholino)methyl)thiazol-2-yl)acetamide]
23 | 6.80 | CC(=O)Nc1ncc(CN2CCO[C@H](Cc3ccnc(OCC(F)(F)F)c3)C2)s1 [Example 1-10]
24 | 6.18 | CC(=O)Nc1ncc(CN2CCN(C)[C@@H](Cc3ccnc(C)c3)C2)s1 [Example 4-10, (S)—N-(5-((4-methyl-3-((2-methylpyridin-4-yl)methyl)piperazin-1-yl)methyl)thiazol-2-yl)acetamide]
25 | 5.12 | CC(=O)Nc1ncc(CN2C[C@@H](Cc3ccnc(C)c3)N(C(C)=O)C[C@@H]2C)s1 [Example 2-4, N-(5-(((2S,5R)-4-acetyl-2-methyl-5-((2-methylpyridin-4-yl)methyl)piperazin-1-yl)methyl)thiazol-2-yl)acetamide]
26 | 7.72 | CC(=O)Nc1ncc(C(C)N2CCO[C@H](Cc3ncc(F)cn3)C2)s1 (single isomer, unassigned) [Example 1-23 Peak 1]
27 | 8.85 | CC(=O)Nc1ncc(CN2C[C@@H](Cc3ccnc(C)c3)OC[C@@H]2C)s1 [Example 1-32, N-(5-(((2R,5S)-5-methyl-2-((2-methylpyridin-4-yl)methyl)morpholino)methyl)thiazol-2-yl)acetamide]
28 | 6.00 | COc1cc(CC2COCCN(Cc3cnc(NC(C)=O)s3)C2)ccn1 (single isomer, unassigned) [Example 1-47 Peak 1]
29 | 5.36 | CC(=O)Nc1ncc(CN2CCO[C@@H](Cc3ncc(F)cn3)C2)s1 [Example 1-2, (S)—N-(5-((2-((5-fluoropyrimidin-2-yl)methyl)morpholino)methyl)thiazol-2-yl)acetamide]
30 | 5.82 | COc1nccc(CC2CN(Cc3cnc(NC(C)=O)s3)CCN2)c1F (single isomer, unassigned) [Example 4-18 Peak 2]
31 | 6.87 | CC(=O)Nc1ncc(CN2CCO[C@H](Cc3ccnc(OC(F)F)c3)C2)s1 [Example 1-17, (R)—N-(5-((2-((2-(difluoromethoxy)pyridin-4-yl)methyl)morpholino)methyl)thiazol-2-yl)acetamide]
32 | 4.85 | COc1nccc(CC2CN(Cc3cnc(NC(C)=O)s3)CCN2)c1F (single isomer, unassigned) [Example 4-18 Peak 1]
33 | 7.37 | COc1cc(C[C@@H]2CN(Cc3cnc(NC(C)=O)s3)CCO2)ccn1 [Example 1-3, (R)—N-(5-((2-((2-methoxypyridin-4-yl)methyl)morpholino)methyl)thiazol-2-yl)acetamide]
